Reference: US20110081315A1, “NOVEL MACROCYCLIC INHIBITORS OF HEPATITIS C VIRUS REPLICATION” (INTERMUNE, INC., priority 2009, published 2011)

Experiments:
hepatitis C replicon = hepatitis C replicon EC50 assay; assay type: cell-based; settings: Hepatitis C virus; hepatitis C replicon; read-out: EC50
Method in brief: (§1)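 Read-outs are IC50 for inhibition of the NS3/NS4 complex and EC50 in an HCV replicon system. Biochemical runs use 23° C. and a 50 mM Tris-HCl (pH 7.5) buffer with 15% glycerol, 10 mM DTT, 0.6 mM LDAO and 25 μM NS4A peptide.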

NS3/NS4 complexes = NS3/NS4 complexes (Hepatitis C virus genotype 1a, UniProt P27958); test: NS3/NS4 inhibition assay (IC50); assay type: biochemical; settings: NS3/NS4 activity; 23° C., 25 μM NS4A peptide
Method in brief: as §1

Sequence of NS3/NS4 complexes (P27958 1027-1657, one chain of several): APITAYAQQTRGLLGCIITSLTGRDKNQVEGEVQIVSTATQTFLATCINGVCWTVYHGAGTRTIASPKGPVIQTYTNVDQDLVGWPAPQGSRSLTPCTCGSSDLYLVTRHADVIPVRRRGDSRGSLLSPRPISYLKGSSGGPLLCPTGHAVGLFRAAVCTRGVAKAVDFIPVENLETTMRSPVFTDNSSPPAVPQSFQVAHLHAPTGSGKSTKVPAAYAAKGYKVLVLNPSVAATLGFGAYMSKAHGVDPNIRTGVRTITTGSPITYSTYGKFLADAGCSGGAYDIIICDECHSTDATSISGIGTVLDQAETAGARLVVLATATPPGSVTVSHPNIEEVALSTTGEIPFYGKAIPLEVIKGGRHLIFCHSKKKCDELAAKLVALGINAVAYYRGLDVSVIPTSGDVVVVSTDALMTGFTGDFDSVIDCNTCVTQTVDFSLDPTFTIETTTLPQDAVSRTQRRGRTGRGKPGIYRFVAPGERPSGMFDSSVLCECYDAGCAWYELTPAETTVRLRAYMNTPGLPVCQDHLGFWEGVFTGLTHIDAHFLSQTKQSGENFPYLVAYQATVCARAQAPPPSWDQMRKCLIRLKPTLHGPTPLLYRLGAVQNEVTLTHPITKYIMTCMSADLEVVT

| Compound | EC50 (hepatitis C replicon) [nM] | IC50 (NS3/NS4 complexes) [nM] |
| --- | --- | --- |
| COc1ccc2c(O[C@@H]3C[C@H]4C(=O)N[C@]5(C(=O)NS(=O)(=O)C6(C)CC6)C[C@H]5/C=C\CCCCC[C@H](Nc5ccc(F)c(F)c5)C(=O)N4C3)cc(-c3nc(C(C)C)cs3)nc2c1C [Compound 1001] | < 10 | < 10 |
| CC(C)n1c(O[C@@H]2C[C@H]3C(=O)N[C@]4(C(=O)NS(=O)(=O)C5(C)CC5)C[C@H]4/C=C\CCCCC[C@H](Nc4ccccc4)C(=O)N3C2)nc2c(-c3cccc(C(=O)N(C)C)c3)cccc21 [Compound 248] | 10 to 100 | < 10 |
| CN(C)S(=O)(=O)NC(=O)[C@@]12C[C@H]1/C=C\CCCCC[C@H](NC(=O)OC(C)(C)C)C(=O)N1C[C@H](Oc3nc4ccccc4n3C(C)(C)C)C[C@H]1C(=O)N2 [Compound 206] | < 10 | < 10 |
| CC(C)n1c(O[C@@H]2C[C@H]3C(=O)N[C@]4(C(=O)NS(=O)(=O)C5(C)CC5)C[C@H]4/C=C\CCCCC[C@H](Nc4ccc(C(F)(F)F)cc4)C(=O)N3C2)nc2cncnc21 [Compound 501] | > 100 | < 10 |
| CC(C)n1c(O[C@@H]2C[C@H]3C(=O)N[C@]4(C(=O)NS(=O)(=O)C5CC5)C[C@H]4/C=C\CCCCC[C@H](NC(=O)OC(C)(C)C)C(=O)N3C2)nc2c(-c3ncco3)cccc21 [Compound 212] | < 10 | < 10 |
| Cc1ccccc1-c1csc(-c2cccc3c2nc(O[C@@H]2C[C@H]4C(=O)N[C@]5(C(=O)NS(=O)(=O)N(C)C)C[C@H]5/C=C\CCCCC[C@H](NC(=O)OC(C)(C)C)C(=O)N4C2)n3C(C)C)n1 [Compound 1748] | 10 to 100 | < 10 |
| COc1ccc2c(O[C@@H]3C[C@H]4C(=O)N[C@]5(C(=O)NS(=O)(=O)C6(C)CC6)C[C@H]5/C=C\CCCCC[C@H](Nc5cccc(C(=O)N6CCOC(C)C6)c5)C(=O)N4C3)cc(-c3nc(C(C)C)cs3)nc2c1C (stereo partly drawn) [Compound 109] | < 10 | < 10 |
| CC(C)n1c(O[C@@H]2C[C@H]3C(=O)N[C@]4(C(=O)NS(=O)(=O)N(C)C)C[C@H]4/C=C\CCCCC[C@H](NC(=O)OC(C)(C)C)C(=O)N3C2)nc2cnccc21 [Compound 209] | 10 to 100 | < 10 |
| CC(C)n1c(O[C@@H]2C[C@H]3C(=O)N[C@]4(C(=O)NS(=O)(=O)C5(C)CC5)C[C@H]4/C=C\CCCCC[C@H](Nc4ccccc4)C(=O)N3C2)nc2c(-c3cccc(C(F)(F)F)c3)cccc21 [Compound 251] | > 100 | < 10 |
| CC(C)n1c(O[C@@H]2C[C@H]3C(=O)N[C@]4(C(=O)O)C[C@H]4/C=C\CCCCC[C@H](Nc4cccc(F)c4)C(=O)N3C2)nc2c(-c3nc(C4CCCC4)cs3)cccc21 [Compound 1763] | > 100 | 10 to 100 |
| CC(C)n1c(O[C@@H]2C[C@H]3C(=O)N[C@]4(C(=O)O)C[C@H]4/C=C\CCCCC[C@H](NC(=O)OC(C)(C)C)C(=O)N3C2)nc2ccccc21 [Compound 208] | > 100 | < 10 |
| CN(C)S(=O)(=O)NC(=O)[C@@]12C[C@H]1/C=C\CCCCC[C@H](NC(=O)OC(C)(C)C)C(=O)N1C[C@H](Oc3nc4ccccc4n3-c3ccccc3)C[C@H]1C(=O)N2 [Compound 207] | < 10 | < 10 |
| CC(C)c1nc(-c2cccc3c2nc(O[C@@H]2C[C@H]4C(=O)N[C@]5(C(=O)NS(=O)(=O)C6(C)CC6)C[C@H]5/C=C\CCCCC[C@H](NC(=O)OC(C)(C)C)C(=O)N4C2)n3C(C)C)oc1C(C)C [Compound 1212] | < 10 | < 10 |
| CC1(S(=O)(=O)NC(=O)[C@@]23C[C@H]2/C=C\CCCCC[C@H](Nc2ccccc2)C(=O)N2C[C@H](n4nnc(-c5cccc(-c6nccs6)c5)n4)C[C@H]2C(=O)N3)CC1 [Compound 805] | > 100 | < 10 |
| CC(C)n1c(O[C@@H]2C[C@H]3C(=O)N[C@]4(C(=O)NS(=O)(=O)C5(C)CC5)C[C@H]4/C=C\CCCCC[C@H](Nc4ccccc4)C(=O)N3C2)nc2c(-c3ccc(F)cc3)cccc21 [Compound 238] | 10 to 100 | < 10 |
| Cc1csc(-c2cccc3c2nc(O[C@@H]2C[C@H]4C(=O)N[C@]5(C(=O)NS(=O)(=O)C6CC6)C[C@H]5/C=C\CCCCC[C@H](NC(=O)OC(C)(C)C)C(=O)N4C2)n3C(C)C)n1 [Compound 215] | < 10 | < 10 |
| CC(C)c1coc(-c2cccc3c2nc(O[C@@H]2C[C@H]4C(=O)N[C@]5(C(=O)NS(=O)(=O)N(C)C)C[C@H]5/C=C\CCCCC[C@H](NC(=O)OC(C)(C)C)C(=O)N4C2)n3C(C)C)n1 [Compound 1435] | < 10 | < 10 |
| CC(C)n1c(O[C@@H]2C[C@H]3C(=O)N[C@]4(C(=O)NS(=O)(=O)C5(C)CC5)C[C@H]4/C=C\CCCCC[C@H](Nc4ccccc4)C(=O)N3C2)nc2c(-c3cccc(F)c3)cccc21 [Compound 239] | 10 to 100 | < 10 |
| CC(C)c1nc(-c2cccc3c2nc(O[C@@H]2C[C@H]4C(=O)N[C@]5(C(=O)NS(=O)(=O)N(C)C)C[C@H]5/C=C\CCCCC[C@H](NC(=O)OC(C)(C)C)C(=O)N4C2)n3C(C)C)sc1C(C)C [Compound 1201] | > 100 | < 10 |
| COc1ccc2c(O[C@@H]3C[C@H]4C(=O)N[C@]5(C(=O)NS(=O)(=O)C6(C)CC6)C[C@H]5/C=C\CCCCC[C@H](Nc5cccc(C(=O)N6CCN(c7ccccc7C)CC6)c5)C(=O)N4C3)cc(-c3nc(C(C)C)cs3)nc2c1C [Compound 118] | 10 to 100 | < 10 |
| CN(C)S(=O)(=O)NC(=O)[C@@]12C[C@H]1/C=C\CCCCC[C@H](NC(=O)OC(C)(C)C)C(=O)N1C[C@H](Oc3cnc4ccccc4n3)C[C@H]1C(=O)N2 [Compound 301] | 10 to 100 | < 10 |
| CC(C)n1c(O[C@@H]2C[C@H]3C(=O)N[C@]4(C(=O)NS(=O)(=O)C5CC5)C[C@H]4/C=C\CCCCC[C@H](NC(=O)OC(C)(C)C)C(=O)N3C2)nc2c(-c3nc4ccccc4s3)cccc21 [Compound 214] | < 10 | < 10 |
| CC(C)n1c(O[C@@H]2C[C@H]3C(=O)N[C@]4(C(=O)NS(=O)(=O)C5(C)CC5)C[C@H]4/C=C\CCCCC[C@H](NC(=O)OC(C)(C)C)C(=O)N3C2)nc2c(-c3ncco3)cccc21 [Compound 235] | < 10 | < 10 |
| CC(C)c1csc(-c2cccc3c2nc(O[C@@H]2C[C@H]4C(=O)N[C@]5(C(=O)NS(=O)(=O)N(C)C)C[C@H]5/C=C\CCCCC[C@H](NC(=O)OC(C)(C)C)C(=O)N4C2)n3C(C)C)n1 [Compound 1433] | < 10 | < 10 |
| CC(C)n1c(O[C@@H]2C[C@H]3C(=O)N[C@]4(C(=O)NS(=O)(=O)N(C)C)C[C@H]4/C=C\CCCCC[C@H](NC(=O)OC(C)(C)C)C(=O)N3C2)nc2c(-c3nc(-c4ccc(-c5ccccc5)cc4)cs3)cccc21 [Compound 1753] | 10 to 100 | < 10 |
| CC(C)n1c(O[C@@H]2C[C@H]3C(=O)N[C@]4(C(=O)NS(=O)(=O)C5(C)CC5)C[C@H]4/C=C\CCCCC[C@H](NC(=O)OC(C)(C)C)C(=O)N3C2)nc2c(-c3nc(C4CCC4)cs3)cccc21 [Compound 1771] | < 10 | < 10 |
| CC(C)n1c(O[C@@H]2C[C@H]3C(=O)N[C@]4(C(=O)NS(=O)(=O)C5(C)CC5)C[C@H]4/C=C\CCCCC[C@H](NC(=O)OC(C)(C)C)C(=O)N3C2)nc2c(-c3nc(Cc4cccc(F)c4)cs3)cccc21 [Compound 1725] | < 10 | < 10 |
